From patent US7906486B2, “Method of treating or preventing tissue deterioration, injury or damage due to disease of mucosa” (SciClone Pharmaceuticals, Inc., priority 2007, dated 2011)
Values joined by “and” are separate entries in the source; they are usually repeats but may differ in a detail not shown here. Equal values may be shown once.

Experiments:
[1] = system: oral mucositis induced by fractionated radiation (eight doses of 7.5 Gy, left buccal cheek pouch); test: Oral mucositis induced by fractionated radiation in hamsters, mucositis scoring (Example 3, SCI-03); format: in vivo, Syrian Golden Hamsters; conditions: for % Days >=3 / Days <3 / Days >=3 / Chi Sq v control: 100 ug/kg, qd; for Days >=3: animal days with mucositis score of three or more; for Chi Sq v control: days with score >=3
Text: The fractionated radiation model in hamsters, developed by the Principal Investigator, has proven to be an accurate, efficient and cost-effective technique to provide a preliminary evaluation of anti-mucositis compounds. In this model, hamsters receive 8 doses of 7.5 Gy to the left cheek pouch on days 0, 1, 2, 3, […], rather than the single dose of 40 Gy on day 0 that is used in acute radiation studies. The rationale for using this scheduling for the radiation is that it more closely resembles the clinical courses of radiotherapy given to cancer patients. The course of mucositis in this model is well defined and results in peak mucositis scores approximately 14-16 days following radiation. Mortality (generally from the side effects of anesthesia) in the fractionated radiation model is slightly higher than that seen in the acute radiation model and group sizes are increased (to 10 per group) to allow for this.
(§1) Forty (40) male Syrian Golden Hamsters were given eight doses of radiation of 7.5 Gy each directed to their left buccal cheek pouch on days 0, 1, 2, 3, 6, 7, 8 and 9. This was accomplished by anesthetizing the animals and everting the left buccal pouch, while protecting the rest of the animal's bodies with a lead shield. Test materials were given by sub-cutaneous injection once daily as detailed in Table 9. Mucositis was evaluated clinically starting on day 7, and continuing on alternate days until day 35. Test articles were given as outlined Table 9, Groups 1 and 2 were dosed from Day −1 to Day 29, Group 3 was dosed on the days of radiation only, Group 4 was dosed on the days between Day −15 and Day 29 on which no radiation is given (Day −1, Day 4, Day 5 and Day 10 to Day 29).
The effect on mucositis of each drug treatment compared to placebo was assessed according to the following parameters:
On each evaluation day, the number of animals with a blinded mucositis score of ≧3 in each drug treatment group was compared to the control group. Differences were compared on a cumulative basis and statistical significance was determined by chi-square analysis. Efficacy, in this analysis, is defined by a significant reduction in the number of days that a group of animals had ulcerations (scores ≧3) when compared to the control group.
For each evaluation day the scores of the control group were compared to those of the treated groups using non-parametric rank sum analysis. Treatment success was considered as a statistically significant lowering of scores in the treated group on 2 or more days from day 6 to day 28.
as §1, with “daily at 8:00 am” for “daily”, “9. […]” for “9. Mucositis was evaluated clinically starting on day 7, and continuing on alternate days until day 35.”, “2 was” for “2 were”, “radiation only (days 0-3 and days 6-10),” for “radiation only,”, “Day −1” for “Day −15”, “Day 4 to” for “Day 4,”
Radiation was generated with a Philips 160 kVp (kilovolt potential) (18.75-ma) X-ray source at a focal distance of 30 cm, with a 3.0 mm hardened Al filtration system. Irradiation was targeted to the left buccal pouch mucosa at a rate of 3.32 Gy/minute. […] Using this calibration, the energy received by each animal at each radiation dose was approximately 64.5 nC (nanoCoulombs) at each time point. Prior to irradiation, animals were anesthetized with an intraperitoneal injection of ketamine (160 mg/kg) and xylazine (8 mg/kg). The left buccal pouch was everted, fixed and isolated using a lead shield.
The mucositis score, weight change and survival were measured throughout the study as described above. […]

[2] = system: immunization with sheep red blood cells; conditions: in vivo; cited from earlier work
spleen lymphocytes = conditions: cited from earlier work
[3] = Weights and survival (Example 3, SCI-03); format: in vivo, Syrian Golden Hamsters
Experimental: All animals were weighed daily and their survival recorded, in order to assess possible differences in animal weight among treatment groups as an indication for mucositis severity and/or possible toxicity resulting from the treatments.
There were no significant differences in weight changes between study groups. The mean daily percent weight change data was evaluated. The saline treated control hamsters gained an average of 76.3% of their starting weight during the study. Hamsters in the group receiving SCV-07 at 100 μg/kg on days −1 to 29 gained an average of 80.7% of their starting weight during the study. Hamsters in the group receiving SCV-07 at 100 μg/kg on days of radiation only gained an average of 66.3% of their starting weight during the study. Hamsters in the group receiving SCV-07 at 100 μg/kg on day −1, day 4, day 5 and days 10-29 gained an average of 69.7% of their starting weight during the study. The significance of these differences was evaluated by calculating the area-under-the-curve (AUC) for the weight gain of each animal, and then comparing the different treatment groups using a One-Way ANOVA test.

[4] = 100 ug/kg from day -1 to day 29
[5] = 100 ug/kg on the days of radiation (0-3 and 6-9)
[6] = individual animals, Group 4 (SCV-07 100 μg/kg on days −1, 4, 5 and 10-29), second part of table

SMILES: N[C@H](CCC(=O)N[C@@H](Cc1c[nH]c2ccccc12)C(=O)O)C(=O)O [SCV-07, γ-D-glutamyl-L-tryptophan]
- day of peak mean mucositis score [1, 4]: 19
- peak mean mucositis score [1, 4]: 3.3
- peak mean mucositis score ([1]; 100 ug/kg on days 1, 4, 5 and 10 through 29): 2.9
- day of peak mean mucositis score [1, 5]: 17
- peak mean mucositis score [1, 5]: 3.0
- % Days >=3 ([1]; sc Days 0 to 3 and 6 to 9): 24%
- Days <3 ([1]; sc Days 0 to 3 and 6 to 9): 228
- % Days >=3 ([1]; sc Days -1, 4, 5 10 to 29): 30.7%
- Days <3 ([1]; sc Days -1, 4, 5 10 to 29): 208
- % Days >=3 ([1]; sc Days -1 to 29): 32.7%
- Days <3 ([1]; sc Days -1 to 29): 202
- Days >=3 ([1]; sc Days 0 to 3 and 6 to 9): 72
- Days >=3 ([1]; sc Days -1, 4, 5 10 to 29): 92
- Days >=3 ([1]; sc Days -1 to 29): 98
- Chi Sq v control ([1]; sc Days 0 to 3 and 6 to 9): 0.3160
- Chi Sq v control ([1]; sc Days -1, 4, 5 10 to 29): 0.2300
- Chi Sq v control ([1]; sc Days -1 to 29): 0.575
- immunostimulatory effect in a model of immunization with sheep red blood cells [2]: strong immunostimulatory effect
- IL-2 receptor expression by spleen lymphocytes (spleen lymphocytes; Con-A-induced): increases
- Con-A-induced interleukin-2 (IL-2) production (spleen lymphocytes; spleen lymphocytes): increases
- average weight gain, % of starting weight during the study ([3]; 100 ug/kg on day -1, day 4, day 5 and days 10-29): 69.7%
- average weight gain, % of starting weight during the study ([3]; 100 ug/kg on days -1 to 29): 80.7%
- average weight gain, % of starting weight during the study ([3]; 100 ug/kg on days of radiation only): 66.3%
- Animal weight, Day 18 [3, 6]: 113 and 121 and 88 and 98
- Animal weight, Day 19 [3, 6]: 118 and 127 and 92 and 102
- Animal weight, Day 20 [3, 6]: 118 and 128 and 92 and 104
- Animal weight, Day 21 [3, 6]: 119 and 131 and 94 and 109
- Animal weight, Day 22 [3, 6]: 120 and 133 and 95 and 109
- Animal weight, Day 23 [3, 6]: 120 and 135 and 97 and 111
- Animal weight, Day 24 [3, 6]: 123 and 135 and 99 and 112
- Animal weight, Day 25 [3, 6]: 122 and 137 and 98 and 113
- Animal weight, Day 26 [3, 6]: 123 and 139 and 100 and 118
- Animal weight, Day 27 [3, 6]: 127 and 140 and 102 and 121
- Animal weight, Day 28 [3, 6]: 128 and 142 and 103 and 122
- Animal weight, Day 29 [3, 6]: 128 and 142 and 102 and 118
- Animal weight, Day 30 [3, 6]: 132 and 146 and 105 and 126
- Animal weight, Day 31 [3, 6]: 134 and 150 and 108 and 126
- Animal weight, Day 32 [3, 6]: 134 and 149 and 109 and 129
- Animal weight, Day 33 [3, 6]: 137 and 154 and 112 and 132
- Animal weight, Day 35 [3, 6]: 140 and 154 and 113 and 134
- Animal weight, Day 34 ([3]; individual animals, Group 4 (SCV-07 100 μg/kg on days −1, 4, 5 and 10-29), second part of table, c18, day inferred as 34): 139 and 153 and 112 and 133
